Calls of active or inactive are those of the source. The rule behind the calls is not given here.
How the values were obtained:
[1] = system: Trichoplusia ni; test: Insecticidal activity against Trichoplusia ni (cabbage looper) assessed as mortality after 2 days by cabbage leaf dip bioassay; assay type: functional, organism-based
[2] = system: Trichoplusia ni; test: Insecticidal activity against Trichoplusia ni (cabbage looper) assessed as mortality after 3 days by cabbage leaf dip bioassay; assay type: functional; parameters: concentration or dose not given beside the values
[3] = system: Trichoplusia ni; test: Insecticidal activity against Trichoplusia ni (cabbage looper) assessed as mortality after 6 hr by cabbage leaf dip bioassay; assay type: functional, organism-based
[4] = Toxicity in Mus musculus ICR (mouse); assay type: organism-based; conditions: in vivo

Structure (SMILES) | Activity [1] | mortality [2] [%] | Activity [3] | LD50 [4] [mg/kg]
CC[C@H](C)[C@H]1O[C@]2(C=C[C@@H]1C)C[C@@H]1C[C@@H](C/C=C(\C)[C@@H](O[C@H]3C[C@H](OC)[C@@H](O[C@H]4C[C@H](OC)[C@@H](O)[C@H](C)O4)[C@H](C)O3)[C@@H](C)/C=C/C=C3\CO[C@@H]4[C@H](O)C(C)=C[C@@H](C(=O)O1)[C@]34O)O2 [ABAMECTIN COMPONENT B1A] | Active | 53 | – | –
CC[C@H](C)[C@H]1O[C@]2(C=C[C@@H]1C)C[C@@H]1C[C@@H](C/C=C(\C)[C@@H](O[C@H]3C[C@H](OC)[C@@H](O[C@@H]4C[C@@](C)(OC)[C@@H](OC(C)=O)[C@H](C)O4)[C@H](C)O3)[C@@H](C)/C=C/C=C3\CO[C@@H]4[C@H](O)C(C)=C[C@@H](C(=O)O1)[C@]34O)O2 | – | 72 | – | –
CC[C@H](C)[C@H]1O[C@]2(C=C[C@@H]1C)C[C@@H]1C[C@@H](C/C=C(\C)[C@@H](O[C@H]3C[C@H](OC)[C@@H](O[C@H]4O[C@@H](C)[C@@H](OC)[C@@H](OC)[C@@H]4OC)[C@H](C)O3)[C@@H](C)/C=C/C=C3\CO[C@@H]4[C@H](O)C(C)=C[C@@H](C(=O)O1)[C@]34O)O2 | – | 93 | Active | 87.5
CC[C@H](C)[C@H]1O[C@]2(C=C[C@@H]1C)C[C@@H]1C[C@@H](C/C=C(\C)[C@@H](O[C@H]3C[C@H](OC)[C@@H](O[C@@H]4C[C@@](C)(O)[C@@H](OC(C)=O)[C@H](C)O4)[C@H](C)O3)[C@@H](C)/C=C/C=C3\CO[C@@H]4[C@H](O)C(C)=C[C@@H](C(=O)O1)[C@]34O)O2 | – | 61 | – | –
CC[C@H](C)[C@H]1O[C@]2(C=C[C@@H]1C)C[C@@H]1C[C@@H](C/C=C(\C)[C@@H](O[C@H]3C[C@H](OC)[C@@H](O[C@@H]4C[C@@](C)(OC)[C@@H](OC)[C@H](C)O4)[C@H](C)O3)[C@@H](C)/C=C/C=C3\CO[C@@H]4[C@H](O)C(C)=C[C@@H](C(=O)O1)[C@]34O)O2 | – | 85 | – | –
CC[C@H](C)[C@H]1O[C@]2(C=C[C@@H]1C)C[C@@H]1C[C@@H](C/C=C(\C)[C@@H](O[C@H]3C[C@H](OC)[C@@H](O[C@H]4O[C@@H](C)[C@@H](O)[C@@H](O)[C@@H]4O)[C@H](C)O3)[C@@H](C)/C=C/C=C3\CO[C@@H]4[C@H](O)C(C)=C[C@@H](C(=O)O1)[C@]34O)O2 | – | 37 | – | –
CC[C@H](C)[C@H]1O[C@]2(C=C[C@@H]1C)C[C@@H]1C[C@@H](C/C=C(\C)[C@@H](O[C@H]3C[C@H](OC)[C@@H](O[C@@H]4C[C@@H](OC)[C@@H](NC)[C@@H](C)O4)[C@H](C)O3)[C@@H](C)/C=C/C=C3\CO[C@@H]4[C@H](O)C(C)=C[C@@H](C(=O)O1)[C@]34O)O2.O=C(O)c1ccccc1 | Active | 90 | – | –
CC[C@H](C)[C@H]1O[C@]2(C=C[C@@H]1C)C[C@@H]1C[C@@H](C/C=C(\C)[C@@H](O[C@H]3C[C@H](OC)[C@@H](O[C@@H]4C[C@@](C)(OC)[C@@H](O)[C@H](C)O4)[C@H](C)O3)[C@@H](C)/C=C/C=C3\CO[C@@H]4[C@H](O)C(C)=C[C@@H](C(=O)O1)[C@]34O)O2 | – | 93 | Active | 17.5
